Data reported in patent publication US20230210864A1, “AGENT FOR PROMOTING CORNEAL ENDOTHELIAL CELL ADHESION” (Senju Pharmaceutical Co., Ltd., priority 2007, published 2023).

System: monkey corneal endothelial cells
Assay: Adhesion of cultured monkey corneal endothelial cells with fasudil, CellTiter-Glo Luminescent Cell Viability Assay
Type: cell-based, Macaca fascicularis
Conditions: fasudil 10 μM, passage-cultured cells
Method: From the corneal tissue isolated from Macaca fascicularis euthanized, Descemet's membrane with corneal endothelial cells attached thereto was separated. The Descemet's membrane was incubated together with Dispase II (1.2 U/ml, Roche Applied Science) under the conditions of 37° C., 5% CO2 for 45 min, and the corneal endothelial cells were mechanically separated by a pipetting operation. The separated corneal endothelial cells were centrifuged and passage-cultured in a medium for corneal endothelium. As the medium for corneal endothelium, the same cell culture medium as in Example 1 was used. The cultured monkey corneal endothelial cells collected during the passage culture by a 0.05% trypsin treatment were separated and centrifuged, and stirred to the same concentration in a medium for corneal endothelium added with fasudil (10 μM, SIGMA-ALDRICH) in the fasudil group and in a medium for corneal endothelium without addition of fasudil in the control group, and the cells were seeded on a 96 well plate at a density of about 2000 cells per well. At 24 hr from the start of the culture, the adhered cells were counted using CellTiter-Glo (registered trade mark) Luminescent Cell Viability Assay (Promega) (FIG. 17).

## O=S(=O)(c1cccc2cnccc12)N1CCCNCC1 [fasudil, 1-(5-isoquinolinesulfonyl)homopiperazine]
  cell adhesion of corneal endothelial cells at 24 hr, compared to control group: effect of promoted cell adhesion of the corneal endothelial cells was also found
